Results reported in patent US20140155376A1, “PYRROLOPYRAZINE KINASE INHIBITORS” (Hoffmann-La Roche Inc., priority 2010, published 2014).
Read-outs that look alike come from different tables or passages of the source.

Target: T1, JAK3 (recombinant human kinase domain; h-jak3(810-1124)) (Homo sapiens, UniProt P52333)
T1 construct: h-jak3(810- 1124)-sf9-c; made in house; host or cells: Sf9 insect cells
Experiment: Determination of IC50 of Janus Kinase (JAK) inhibition: JAK3, radioactive end-point assay with 33P-ATP
Format: biochemical

[1] = JAK3 kinase domain, ATP 1.5 uM, peptide 50 uM, 20 minutes, room temperature, 10% DMSO, read-out: Ic50 h-jak3(810-1124)-sf9-c:no additive

T1 sequence (P52333 810-1124): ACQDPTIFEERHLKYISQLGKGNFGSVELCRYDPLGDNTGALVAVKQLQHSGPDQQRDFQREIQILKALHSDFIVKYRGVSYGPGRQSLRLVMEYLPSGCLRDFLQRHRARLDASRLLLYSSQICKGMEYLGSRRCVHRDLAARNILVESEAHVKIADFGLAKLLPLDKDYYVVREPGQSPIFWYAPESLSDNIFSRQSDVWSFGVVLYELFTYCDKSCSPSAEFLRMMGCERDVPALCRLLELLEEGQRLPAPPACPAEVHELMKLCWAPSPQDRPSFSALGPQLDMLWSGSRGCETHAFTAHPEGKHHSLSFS
Excerpt: Determination of IC50 of Janus Kinase (JAK) Inhibition:
Enzymes and peptide substrate used are described below: • JAK1: Recombinant human kinase domain from Invitrogen (Cat # PV4774) • JAK3: Recombinant human kinase domain from Millipore (Cat #14-629) or prepared. • JAK2: Recombinant human kinase domain from Millipore (Cat #14-640) • Substrate: N-terminally biotinylated 14-mer peptide derived from activation loop of JAK1 with sequence of the peptide substrate: Biotin-[sequence]
Assay Conditions Used are Described Below: • Assay Buffer: JAK Kinase Buffer: 50 mM Hepes [pH 7.2], 10 mM MgCl2, 1 mM DTT, • 1 mg/ml BSA. The assay is carried out in this buffer. • Assay Format The kinase activity of all three JAK kinases is measured using a radioactive, end-point assay and with trace amounts of ^33P-ATP. The assays are carried out in 96-well polypropylene plates.
All concentrations are final in the reaction mixture and all incubations are carried at room temperature. […] Final concentration of DMSO in the reaction is 10%. • 2) Compounds are preincubated with enzyme (0.5 nM JAK3 (commercially available), 0.2 nM JAK3 (prepared), 1 nM JAK2, 5 nM JAK1) for 10 minutes. • 3) Reactions are initiated by the addition of a cocktail of the two substrates (ATP and peptide premixed in the JAK Kinase Buffer). In the JAK2/JAK3 assays, ATP and the peptide are used at concentrations of 1.5 uM and 50 uM, respectively. JAK1 assay is carried out at an ATP concentration of 10 uM and a peptide concentration of 50 uM. • 4) The duration of the assay for JAK2 and JAK3 is 20 minutes. JAK1 assay is carried out for 40 minutes. With all three enzymes, reactions are terminated by the addition of 0.5M EDTA to a final concentration of 100 mM. • 5) 25 ul of terminated reactions are transferred to 150 ul of a 7.5% (v/v) slurry of streptavidin-coated sepharose beads in MgCl2- and CaCl2-free 1× Phosphate Buffered Saline containing 50 mM of EDTA in 96-well, 1.2 um MultiScreen-BV filter plates. • 6) After a 30-minute incubation, the beads are washed under vacuum with the following buffers: • a. 3 to 4 washes with 200 ul of 2M NaCl. • b. 3 to 4 washes with 200 ul of 2M NaCl plus 1% (v/v) phosphoric acid. • c. 1 wash with water. • 7) Washed plates are dried in a 60° C. oven for between 1 to 2 hours. • 8) 70 ul of Microscint 20 scintillation fluid is added to each well of filter plates and after at least 30 minutes of incubation, radioactive counts are measured in a Perkin-Elmer microplate scintillation counter.

| SMILES | IC50 [1] | IC50 |
| --- | --- | --- |
| CC(C)[C@H](C)NC(=O)c1c[nH]c2ncc(C3CC3)nc12 [Example I-25, 2-Cyclopropyl-5H-pyrrolo[2,3-b]pyrazine-7-carboxylic acid ((S)-1,2-dimethyl-propyl)-amide] | 6.73 nM | – |
| C[C@H](NC(=O)c1c[nH]c2ncc(Oc3ccccc3)nc12)C(C)(C)O [Example I-128, 2-Phenoxy-5H-pyrrolo[2,3-b]pyrazine-7-carboxylic acid ((S)-2-hydroxy-1,2-dimethyl-propyl)-amide] | 211 nM | – |
| Cc1cc(-c2cnc3[nH]cc(C(=O)N[C@@H](C)C(C)(C)C)c3n2)sc1C(=O)N1CC(CO)(CO)C1 [Example I-222, 2-[5-(3,3-Bis-hydroxymethyl-azetidine-1-carbonyl)-4-methyl-thiophen-2-yl]-5H-pyrrolo[2,3-b]pyrazine-7-carboxylic acid ((S)-1,2,2-trimethyl-propyl)-amide] | 0.11 nM | – |
| C[C@H](NC(=O)c1c[nH]c2ncc(-c3ccc(C(=O)N4CC(C(N)=O)C4)s3)nc12)C(C)(C)C [Example I-179, 2-[5-(3-Carbamoyl-azetidine-1-carbonyl)-thiophen-2-yl]-5H-pyrrolo[2,3-b]pyrazine-7-carboxylic acid ((S)-1,2,2-trimethyl-propyl)-amide] | 0.32 nM | – |
| CC(C)NC(=O)c1c[nH]c2ncc(Oc3cccc4c3OC(C)(C)C4)nc12 [Example I-254, 2-(2,2-Dimethyl-2,3-dihydro-benzofuran-7-yloxy)-5H-pyrrolo[2,3-b]pyrazine-7-carboxylic acid isopropylamide] | 2990 nM | – |
| C[C@H](NC(=O)c1c[nH]c2ncc(-c3ccc(C(=O)NCCS(N)(=O)=O)s3)nc12)C(C)(C)C [Example I-173, 2-[5-(2-Sulfamoyl-ethylcarbamoyl)-thiophen-2-yl]-5H-pyrrolo[2,3-b]pyrazine-7-carboxylic acid ((S)-1,2,2-trimethyl-propyl)-amide] | 0.2 nM | – |
| CCNC(=O)c1c[nH]c2ncc(Oc3ccc(C#N)cc3)nc12 [Example I-267, 2-(4-Cyano-phenoxy)-5H-pyrrolo[2,3-b]pyrazine-7-carboxylic acid ethylamide] | 2360 nM | – |
| C[C@H](NC(=O)c1c[nH]c2ncc(-c3cn(-c4cccc(Cl)c4)cn3)nc12)C(C)(C)C [Example I-145, 2-[1-(3-Chloro-phenyl)-1H-imidazol-4-yl]-5H-pyrrolo[2,3-b]pyrazine-7-carboxylic acid ((S)-1,2,2-trimethyl-propyl)-amide] | 4.61 nM | – |
| C[C@H](NC(=O)c1c[nH]c2ncc(C3CC3)nc12)c1ccccc1 [Example I-67, 2-Cyclopropyl-5H-pyrrolo[2,3-b]pyrazine-7-carboxylic acid ((S)-1-phenyl-ethyl)-amide] | 427 nM | – |
| CCNC(=O)c1c[nH]c2ncc(Oc3cccc4[nH]ccc34)nc12 [Example I-275, 2-(1H-Indol-4-yloxy)-5H-pyrrolo[2,3-b]pyrazine-7-carboxylic acid ethylamide] | 626 nM | – |
| C[C@H](NC(=O)c1c[nH]c2ncc(C3CC3)nc12)C(C)(C)CS(C)(=O)=O [Example I-144, 2-Cyclopropyl-5H-pyrrolo[2,3-b]pyrazine-7-carboxylic acid ((S)-3-methanesulfonyl-1,2,2-trimethyl-propyl)-amide] | 3.4 nM | – |
| CCNC(=O)c1c[nH]c2ncc(Oc3cccc4c3CCCC4)nc12 [Example I-259] | 6710 nM | – |
| C[C@@H](NC(=O)c1c[nH]c2ncc(Oc3ccccc3)nc12)C(C)(C)C [Example I-130, 2-Phenoxy-5H-pyrrolo[2,3-b]pyrazine-7-carboxylic acid ((R)-1,2,2-trimethyl-propyl)-amide] | 659 nM | – |
| CC1CCCCC1NC(=O)c1ccc(-c2cnc3[nH]cc(C(=O)N[C@@H](C)C(C)(C)C)c3n2)s1 (stereo partly drawn) [Example I-190, 2-[5-(2-Methyl-cyclohexyl-carbamoyl)-thiophen-2-yl]-5H-pyrrolo[2,3-b]pyrazine-7-carboxylic acid ((S)-1,2,2-trimethyl-propyl)-amide] | 0.69 nM | – |
| CC(C)(CO)CNC(=O)c1c[nH]c2ncc(Nc3ccccc3)nc12 [Example I-15, 2-Phenylamino-5H-pyrrolo[2,3-b]pyrazine-7-carboxylic acid (3-hydroxy-2,2-dimethyl-propyl)-amide] | 7.49 nM | – |
| C[C@H](NC(=O)c1c[nH]c2ncc(-c3ccc(C(=O)N4CCCCC4)s3)nc12)C(C)(C)C#N [Example I-224, 2-[5-(Piperidine-1-carbonyl)-thiophen-2-yl]-5H-pyrrolo[2,3-b]pyrazine-7-carboxylic acid ((S)-2-cyano-1,2,2-trimethyl-ethyl)-amide] | 0.36 nM | – |
| CCNC(=O)c1c[nH]c2ncc(Oc3ccc4ccccc4c3)nc12 [Example I-262, 2-(Naphthalen-2-yloxy)-5H-pyrrolo[2,3-b]pyrazine-7-carboxylic acid ethylamide] | 1870 nM | – |
| C[C@H](CO)NC(=O)c1c[nH]c2ncc(C3CC3)nc12 [Example I-41, 2-Cyclopropyl-5H-pyrrolo[2,3-b]pyrazine-7-carboxylic acid ((R)-2-hydroxy-1-methyl-ethyl)-amide] | 112 nM | – |
| C[C@@H](NC(=O)c1c[nH]c2ncc(C#N)nc12)C(C)(C)O [Example I-115, 2-Cyano-5H-pyrrolo[2,3-b]pyrazine-7-carboxylic acid ((R)-2-hydroxy-1,2-dimethyl-propyl)-amide] | 3300 nM | – |
| C[C@H](NC(=O)c1c[nH]c2ncc(-c3cn(-c4cccc(C(F)(F)F)c4)cn3)nc12)C(C)(C)C [Example I-146, 2-[1-(3-Trifluoromethyl-phenyl)-1H-imidazol-4-yl]-5H-pyrrolo[2,3-b]pyrazine-7-carboxylic acid ((S)-1,2,2-trimethyl-propyl)-amide] | 13.1 nM | – |
| CC(C)NC(=O)c1c[nH]c2ncc(Oc3ccc4c(c3)[C@H](NC(=O)c3ccccc3)CC4)nc12 [Example I-286, 2-((R)-3-Benzoylamino-indan-5-yloxy)-5H-pyrrolo[2,3-b]pyrazine-7-carboxylic acid isopropylamide] | 152 nM | – |
| CC(C)NC(=O)c1c[nH]c2ncc(Oc3cccc4[nH]ccc34)nc12 [Example I-274, 2-(1H-Indol-4-yloxy)-5H-pyrrolo[2,3-b]pyrazine-7-carboxylic acid isopropylamide] | 353 nM | – |
| CC[C@@H](C)NC(=O)c1c[nH]c2ncc(Oc3ccc(F)cc3F)nc12 [Example I-126, 2-(2,4-Difluoro-phenoxy)-5H-pyrrolo[2,3-b]pyrazine-7-carboxylic acid ((R)-sec-butyl)-amide] | 190 nM | – |
| CC(C)NC(=O)c1c[nH]c2ncc(Oc3ccc4c(c3)C=CC4)nc12 [Example I-302, 2-(1H-Inden-5-yloxy)-5H-pyrrolo[2,3-b]pyrazine-7-carboxylic acid isopropylamide] | – | 157 nM |
| C[C@H](NC(=O)c1c[nH]c2ncc(-c3ccc(C(=O)N(C)Cc4ccc(F)cc4)s3)nc12)C(C)(C)C [Example I-205, 2-{5-[(4-Fluoro-benzyl)-methyl-carbamoyl]-thiophen-2-yl}-5H-pyrrolo[2,3-b]pyrazine-7-carboxylic acid ((S)-1,2,2-trimethyl-propyl)-amide] | 0.76 nM | – |
| C[C@H](NC(=O)c1c[nH]c2ncc(-c3ccc(C(=O)N[C@H](C)C(C)(C)C)s3)nc12)C(C)(C)C [Example I-209, 2-[5-((R)-1,2,2-Trimethyl-propylcarbamoyl)-thiophen-2-yl]-5H-pyrrolo[2,3-b]pyrazine-7-carboxylic acid ((S)-1,2,2-trimethyl-propyl)-amide] | 0.47 nM | – |
